Assay [1] has as its target T1, Adenosine receptor A1 (Homo sapiens) (UniProt P30542).
T1 sequence (whole entry): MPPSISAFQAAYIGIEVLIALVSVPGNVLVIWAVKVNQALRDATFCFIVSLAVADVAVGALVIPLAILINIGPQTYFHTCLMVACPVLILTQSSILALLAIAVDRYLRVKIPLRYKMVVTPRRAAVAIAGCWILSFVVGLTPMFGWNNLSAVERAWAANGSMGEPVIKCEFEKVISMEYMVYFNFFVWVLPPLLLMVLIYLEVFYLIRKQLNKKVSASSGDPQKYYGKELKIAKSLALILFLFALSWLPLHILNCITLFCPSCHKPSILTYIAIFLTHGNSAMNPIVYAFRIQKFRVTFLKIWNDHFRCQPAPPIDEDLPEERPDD
Kind of assay: Inhibitory activity against binding of [3H]DPCPX to human A1 receptor (hA1) using competition binding assay at a concentration of 10 uM.

Assay [2] deals with T1, Adenosine receptor A1 (Homo sapiens). Kind of assay: Inhibitory activity against binding of the [3H]DPCPX to human A1 receptor (hA1) radioligands using competition binding assay at a concentration of 10 uM.
In assay [3] the target is T2, Adenosine receptor A1 (Homo sapiens, UniProt P30542).
T2 sequence (P30542 whole entry): T1 sequence (whole entry)
Kind of assay: Inhibitory activity against membranes from yeast cells transformed with human A1 receptor (hA1). It counts as cell-based.

Assay [4] has as its target T3, Adenosine receptor A2a (Homo sapiens, UniProt P29274). Kind of assay: Inhibitory activity against binding of [3H]CGS-21680 to human A2a receptor (hA2a) using competition binding assay at a concentration of 10 uM.
Assay [5] has as its target T3, Adenosine receptor A2a. Kind of assay: Inhibitory activity against binding of the [3H]CGS-21680 to human A2a receptor (hA2a) radioligands using competition binding assay at a concentration of 10 uM.
Assay [6] has as its target T3, Adenosine receptor A2a. Description: Inhibitory activity against membranes from HEK293 cells stably expressing the human A2a receptor (hA2a) at a concentration of 10 uM. The format is cell-based.
Assay [7] concerns the target T2, Adenosine receptor A1. Description: Inhibitory activity against binding of [3H]DPCPX to human A1 receptor (hA1) using competition binding assay.
Assay [8] addresses T2, Adenosine receptor A1. Kind of assay: Inhibitory activity against binding of the [3H]DPCPX to human A1 receptor (hA1) radioligands using competition binding assay.
The target of assay [9] is T3, Adenosine receptor A2a. Description: Inhibitory activity against binding of [3H]CGS-21680 to human A2a receptor (hA2a) using competition binding assay.
Assay [10] concerns the target T3, Adenosine receptor A2a. Description: Inhibitory activity against membranes from HEK293 cells stably expressing the human A2a receptor (hA2a). It counts as cell-based.
The target of assay [11] is T3, Adenosine receptor A2a. Description: Inhibitory activity against binding of the [3H]CGS-21680 to human A2a receptor (hA2a) radioligands using competition binding assay.

Structures are written as SMILES.

T3 sequence (P29274 whole entry): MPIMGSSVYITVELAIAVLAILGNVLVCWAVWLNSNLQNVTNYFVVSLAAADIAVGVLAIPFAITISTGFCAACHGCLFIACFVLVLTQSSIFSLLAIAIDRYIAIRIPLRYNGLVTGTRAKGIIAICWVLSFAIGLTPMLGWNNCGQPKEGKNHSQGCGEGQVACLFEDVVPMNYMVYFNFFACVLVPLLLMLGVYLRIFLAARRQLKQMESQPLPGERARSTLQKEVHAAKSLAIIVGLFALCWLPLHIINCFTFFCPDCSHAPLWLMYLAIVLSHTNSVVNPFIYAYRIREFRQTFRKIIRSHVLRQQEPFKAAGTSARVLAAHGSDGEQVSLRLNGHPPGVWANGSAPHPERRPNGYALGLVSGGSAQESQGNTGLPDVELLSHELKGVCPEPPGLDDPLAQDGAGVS

As for `Cc1[nH]c2nc(-c3ccccc3)nc(NCCCN3CCCC3=O)c2c1C`, the inhibition stood at 75% in assay [1]; 75% in assay [2]; 54% on Adenosine receptor A2a [4]; 54% at Adenosine receptor A2a [5]; 58% on Adenosine receptor A2a [6]. Moreover, at Adenosine receptor A1 [3], the half-maximal inhibitory concentration (IC50) is 5650 nM.

On to `Cc1[nH]c2nc(-c3ccccc3)nc(NCCN3CCNC3=O)c2c1C`, for which the 50% inhibitory concentration (IC50) at Adenosine receptor A1 [7] is 364 nM; against Adenosine receptor A1 [3], 422 nM; at Adenosine receptor A2a [9], 604 nM; against Adenosine receptor A2a [10] it was 725 nM. Further, the values for the Ki on Adenosine receptor A1 [8] and on Adenosine receptor A2a [11] were 144 nM and 215 nM, respectively.

Regarding `Cc1[nH]c2nc(-c3ccccc3)nc(N[C@@H]3Cc4ccccc4[C@H]3O)c2c1C`, the IC50 at Adenosine receptor A1 [7] turned out to be 1810 nM; against Adenosine receptor A1 [3] it was 1700 nM; against Adenosine receptor A2a [10], 3220 nM. For the same molecule, the inhibition constant (Ki) on Adenosine receptor A1 [8] came to 896 nM. Also, the inhibition at Adenosine receptor A2a [4] and on Adenosine receptor A2a [5] was 59% throughout.

For `Cc1[nH]c2nc(-c3ccccc3)nc(NCc3ccncc3)c2c1C`, the IC50 on Adenosine receptor A1 [7] stood at 262 nM; against Adenosine receptor A1 [3], 222 nM; on Adenosine receptor A2a [9], 1710 nM; at Adenosine receptor A2a [10], 2010 nM. Also, the figures for the inhibition constant Ki on Adenosine receptor A1 [8] and on Adenosine receptor A2a [11] were 132 nM and 811 nM, respectively.

As for `Cc1[nH]c2nc(-c3ccccc3)nc(N[C@H](CO)CC(C)C)c2c1C`, the 50% inhibitory concentration (IC50) was 1910 nM at Adenosine receptor A1 [7], 1750 nM against Adenosine receptor A1 [3], 3400 nM on Adenosine receptor A2a [9] and 2680 nM at Adenosine receptor A2a [10]. Besides, the Ki was found to be 951 nM on Adenosine receptor A1 [8] and 1140 nM at Adenosine receptor A2a [11].

Regarding `Cc1[nH]c2nc(-c3ccccc3)nc(N[C@@H]3CCCCNC3=O)c2c1C`, the IC50 at Adenosine receptor A1 [7] turned out to be 1540 nM; at Adenosine receptor A1 [3] it was 1260 nM; on Adenosine receptor A2a [9], 2060 nM; at Adenosine receptor A2a [10], 2110 nM. In addition, the inhibition constant (Ki) at Adenosine receptor A1 [8] was 771 nM; on Adenosine receptor A2a [11] it was 962 nM.

For `CC(=O)NCCNc1nc(-c2ccccc2)nc2[nH]c(C)c(C)c12`, the IC50 at Adenosine receptor A2a [9] and against Adenosine receptor A2a [10] was 48 nM throughout. Besides, the Ki at Adenosine receptor A2a [11] worked out at 23 nM.

With `Cc1nc2nc(-c3ccccc3)[nH]c(N[C@H](C)c3ccccc3)c-2c1C`, the IC50 on Adenosine receptor A1 [7] was determined as 1980 nM; at Adenosine receptor A1 [3], 1610 nM; at Adenosine receptor A2a [10], 3880 nM. Besides, the Ki on Adenosine receptor A1 [8] was 981 nM. For the same molecule, the inhibition on Adenosine receptor A2a [4] and on Adenosine receptor A2a [5] was 61% throughout.

The record behind these values is ChEMBL document CHEMBL1131846, “Selective A1-adenosine receptor antagonists identified using yeast Saccharomyces cerevisiae functional assays” (Bioorg Med Chem Lett, 1999).
